From patent US20230399287A1, “NOVEL COMPOUNDS” (Sitryx Therapeutics Limited, priority 2020, published 2023)

Assays:
[1] = tested on: IL-1β; assay: THP-1 AlphaLISA IL-1β cytokine assay; format: cell-based; conditions: Homo sapiens, THP-1, differentiated THP-1 cells, LPS 24 hr then Nigericin 1 hour
Protocol: (§1) Measuring Inhibitory Effects on IL-1V and IL-6 Cytokine Output from THP-1s
(§2) The cytokine inhibition profiles of compounds of formula (I) were determined in a differentiated THP-1 cell assay. All assays were performed in RPMI-1640 growth medium (Gibco), supplemented with 10% fetal bovine serum (FBS; Gibco), 1% penicillin-streptomycin and 1% sodium pyruvate unless specified otherwise. The IL-1β and IL-6 cytokine inhibition assays were run in a background of differentiated THP-1 cells as described below. All reagents described were from Sigma-Aldrich unless specified otherwise. Compounds were prepared as 10 mM DMSO stocks.
(§3) THP-1 cells were expanded as a suspension up to 80% confluence in appropriate growth medium. Cells were harvested, suspended, and treated with an appropriate concentration of phorbol 12-myristate 13-acetate (PMA) over a 72 hr period (37° C./5% CO2).
(§4) Following 72 hrs of THP-1 cell incubation, cellular medium was removed and replaced with fresh growth media containing 1% of FBS. Working concentrations of compounds were prepared separately in 10% FBS treated growth medium and pre-incubated with the cells for 30 minutes (37° C./5% CO2). Following the 30 minute compound pre-incubation, THP-1s were treated with an appropriate concentration of LPS and the THP-1s were subsequently incubated for a 24 hr period (37° C./5% CO2). An appropriate final concentration of Nigericin was then dispensed into the THP-1 plates and incubated for 1 hour (37° C./5% CO2) before THP-1 supernatants were harvested and collected in separate polypropylene 96-well holding plates.
(§5) Reagents from each of the IL-1β and IL-6 commercial kits (Perkin Elmer) were prepared and run according to the manufacturer's instructions. Subsequently, fluorescence signal detection in a microplate reader was measured (EnVision® Multilabel Reader, Perkin Elmer).
(§6) Percentage inhibition was calculated per cytokine by normalising the sample data to the high and low controls used within each plate (+/−LPS respectively). Percentage inhibition was then plotted against compound concentration and the 50% inhibitory concentration ([…]) was determined from the resultant concentration-response curve.

[2] = tested on: IL-6; assay: THP-1 AlphaLISA IL-6 cytokine assay; format: cell-based; conditions: Homo sapiens, THP-1, differentiated THP-1 cells, LPS 24 hr then Nigericin 1 hour
Protocol: as §1, §2, §3, §4, §5, §6

[3] = Hepatocyte stability assay (human); format: in vitro ADME; conditions: human, cryopreserved hepatocytes, 10 μM compound, 60 min, read-out: T½
Text: (§7) Defrosted cryo-preserved hepatocytes (viability>70%) were used to determine the metabolic stability of a compound via calculation of intrinsic clearance (Clint; a measure of the removal of a compound from the liver in the absence of blood flow and cell binding). Clearance data are particularly important for in vitro work as they can be used in combination with in vivo data to predict the half-life and oral bioavailability of a drug.
(§8) The metabolic stability in hepatocytes assay involved a time-dependent reaction using both positive and negative controls. The cells must be pre-incubated at 37° C. then spiked with test compound (and positive control); samples taken at pre-determined time intervals were analysed to monitor the change in concentration of the initial drug compound over 60 minutes. A buffer incubation reaction (with no hepatocytes present) acted as a negative control and two cocktail solutions, containing compounds with known high and low clearance values (verapamil/7-hydroxycoumarin and propranolol/diltiazem), acted as positive controls. • 1. The assay was run with a cell concentration of 0.5×10^6 cells/mL in Leibovitz buffer. • 2. All compounds and controls were run in duplicate. • 3. Compound concentration was 10 μM. • 4. All compounds and controls were incubated with both cells and buffer to show turnover is due to hepatic metabolism. • 5. All wells on the incubation plate had 326.7 μL of either cells or buffer added. • 6. Prior to assay, cell and buffer-only incubation plates were preincubated for 10 mins at 37° C. • 7. The assay was initiated by adding compounds, 3.3 μL of 1 mM in 10% DMSO-90% Buffer; final DMSO concentration is 0.1%. • 8. Samples were taken at regular timepoints (0, 5, 10, 20, 40, 60 min) until 60 mins. • 9. Sample volume was 40 μL and added to 160 μL of crash solvent (acetonitrile with internal standard) and stored on ice. • 10. At the end of the assay, the crash plates were centrifuged at 3500 rpm for 20 mins at 4° C. • 11. 80 μL of clear supernatant was removed and mixed with 80 μL of deionised water before being analysed by LC-MS/MS.
(§9) Raw LC-MS/MS data were exported to, and analysed in, Microsoft Excel for determination of intrinsic clearance. The percentage remaining of a compound was monitored using the peak area of the initial concentration as 100%. Intrinsic clearance and half-life values were calculated using a graph of the natural log of percentage remaining versus the time of reaction in minutes. Half-life (min) and intrinsic clearance (Clint in μL min^−1 10^−6 cells) values were calculated using the gradient of the graph (the elimination rate constant, k) and Equations 1 and 2.

[4] = tested on: hepatocytes; assay: Hepatocyte stability assay (human); format: in vitro ADME; conditions: 10 μM compound, 60 min
Text: as §7, §8, §9

[5] = Hepatocyte stability assay (mouse); format: in vitro ADME; conditions: mouse, cryopreserved hepatocytes, 10 μM compound, 60 min, read-out: T½
Text: as §7, §8, §9

[6] = tested on: hepatocytes; assay: Hepatocyte stability assay (mouse); format: in vitro ADME; conditions: 10 μM compound, 60 min
Text: as §7, §8, §9

[7] = tested on: NRF2; assay: NRF2 +/- GSH activation assay (DiscoverX PathHunter NRF2 translocation kit); format: cell-based; conditions: for Emax: normalised to dimethyl fumarate high control; for EC50: Homo sapiens, U2OS, U2OS PathHunter cells

| SMILES | IC50 [1] | IC50 [2] | half-life at 10 μM [3] | Clint [4] | half-life at 10 μM [5] | Clint [6] | Emax ([7]; +GSH) | EC50 ([7]; +GSH) | EC50 ([7]; −GSH) | Emax ([7]; −GSH) |
| --- | --- | --- | --- | --- | --- | --- | --- | --- | --- | --- |
| C=C(CC(=O)OC1(c2ccc(C(F)(F)F)c(F)c2)CCC1)C(=O)O [Example 17, 4-(1-(3-fluoro-4-(trifluoromethyl)phenyl)cyclobutoxy)-2-methylene-4-oxobutanoic acid] | 2 µM | > 31.6 µM | 2.62 h | 11 μL min^−1 10^−6 cells | 3.53 h | 9 μL min^−1 10^−6 cells | – | – | – | – |
| C=C(CC(=O)OC1(c2ccc(C(F)(F)F)cc2)COC1)C(=O)O [Example 24, 2-methylene-4-oxo-4-((3-(4-(trifluoromethyl)phenyl)oxetan-3-yl)oxy)butanoic acid] | 1.4 µM | > 100 µM | > 7.67 h | <3 μL min^−1 10^−6 cells | 2.42 h | 11 μL min^−1 10^−6 cells | – | – | – | – |
| C=C(CC(=O)OC1(c2ccc(Br)cc2)COC1)C(=O)O [Example 23, 4-((3-(4-bromophenyl)oxetan-3-yl)oxy)-2-methylene-4-oxobutanoic acid] | 1.4 µM | > 100 µM | > 7.67 h | <3 μL min^−1 10^−6 cells | 2.1 h | 12 μL min^−1 10^−6 cells | – | – | – | – |
| C=C(CC(=O)O[C@]1(c2ccc(C(F)(F)F)cc2)C[C@H](C)C1)C(=O)O [Example 45, (cis)-4-(3-methyl-1-(4-(trifluoromethyl)phenyl)cyclobutoxy)-2-methylene-4-oxobutanoic acid] | 3.4 µM | > 100 µM | > 7.67 h | <3 μL min^−1 10^−6 cells | 2.6 h | 8 μL min^−1 10^−6 cells | – | – | – | – |
| C=C(CC(=O)OC1(c2ccc(C(F)F)cc2)CCC1)C(=O)O [Example 20, 4-(1-(4-(difluoromethyl)phenyl)cyclobutoxy)-2-methylene-4-oxobutanoic acid] | 3 µM | 48.7 µM | 7.45 h | 4 μL min^−1 10^−6 cells | 2.33 h | 13 μL min^−1 10^−6 cells | – | – | – | – |
| C=C(CC(=O)OC1(c2ccc(C(F)(F)F)cn2)COC1)C(=O)O [Example 46, 2-methylene-4-oxo-4-(3-(5-(trifluoromethyl)pyridin-2-yl)oxetan-3-yloxy)butanoic acid] | 4.1 µM | > 31.6 µM | > 7.67 h | <3 μL min^−1 10^−6 cells | > 7.67 h | <3 μL min^−1 10^−6 cells | – | – | – | – |
| C=C(CC(=O)OC1(c2ccc(C(F)(F)F)cc2)CC(F)(F)C1)C(=O)O [Example 29, 4-(3,3-difluoro-1-(4-(trifluoromethyl)phenyl)cyclobutoxy)-2-methylene-4-oxobutanoic acid] | 1.3 µM | > 100 µM | 2.38 h | 11 μL min^−1 10^−6 cells | 1.32 h | 20 μL min^−1 10^−6 cells | – | – | – | – |
| C=C(CC(=O)O[C@]1(c2ccc(C(F)(F)F)cc2)C[C@H](C#N)C1)C(=O)O [Example 41, 4-((cis)-3-cyano-1-(4-(trifluoromethyl)phenyl)cyclobutoxy)-2-methylene-4-oxobutanoic acid] | 2.1 µM | > 31.6 µM | > 7.67 h | <3 μL min^−1 10^−6 cells | 4.87 h | 8 μL min^−1 10^−6 cells | – | – | – | – |
| C=C(CC(=O)OC1(c2ccc(C(F)(F)F)cc2)CC(C)C1)C(=O)O (single isomer, unassigned) [Example 44, 4-(3-methyl-1-(4-(trifluoromethyl)phenyl)cyclobutoxy)-2-methylene-4-oxobutanoic acid] | 5.1 µM | > 100 µM | > 7.67 h | <3 μL min^−1 10^−6 cells | 2.33 h | 9 μL min^−1 10^−6 cells | – | – | – | – |
| C=C(C(=O)O)C1(C(=O)OC2(c3ccc(C(F)(F)F)cc3)CCC2)CC1 [Example 39, 2-(1-((1-(4-(trifluoromethyl)phenyl)cyclobutoxy)carbonyl)cyclopropyl)acrylic acid] | 1.5 µM | > 100 µM | 1.08 h | 18 μL min^−1 10^−6 cells | 0.8 h | 45 μL min^−1 10^−6 cells | – | – | – | – |
| C=C(CC(=O)OC1(c2ccc(C(F)(F)F)cc2)CS(=O)(=O)C1)C(=O)O [Example 49, 4-((1,1-dioxido-3-(4-(trifluoromethyl)phenyl)thietan-3-yl)oxy)-2-methylene-4-oxobutanoic acid] | 5 µM | > 100 µM | 0.25 h | 91 μL min^−1 10^−6 cells | 0.317 h | 68 μL min^−1 10^−6 cells | – | – | – | – |
| C=C(CC(=O)OC1(c2ccc(C(F)(F)C(F)(F)F)cc2)CCC1)C(=O)O [Example 31, 2-methylene-4-oxo-4-(1-(4-(perfluoroethyl)phenyl)cyclobutoxy)butanoic acid] | 3.4 µM | > 100 µM | 2.33 h | 11 μL min^−1 10^−6 cells | 0.7 h | 38 μL min^−1 10^−6 cells | – | – | – | – |
| C=C(CC(=O)OC1(c2ccc(C(F)(F)F)cc2)CCOCC1)C(=O)O [Example 47, 2-methylene-4-oxo-4-((4-(4-(trifluoromethyl)phenyl)tetrahydro-2H-pyran-4-yl)oxy)butanoic acid] | 6.7 µM | > 100 µM | > 7.67 h | <3 μL min^−1 10^−6 cells | > 7.67 h | <3 μL min^−1 10^−6 cells | – | – | – | – |
| C=C(CC(=O)OC1(c2ncc(C(F)(F)F)cn2)CCC1)C(=O)O [Example 52, 2-methylene-4-oxo-4-(1-(5-(trifluoromethyl)pyrimidin-2-yl)cyclobutoxy)butanoic acid] | 11.7 µM | > 100 µM | > 7.67 h | <3 μL min^−1 10^−6 cells | 5.12 h | 5 μL min^−1 10^−6 cells | – | – | – | – |
| C=C(CC(=O)O[C@@H](C)c1ccc(C(F)(F)F)cc1)C(=O)O [Example 4, (S)-2-methylene-4-oxo-4-(1-(4-(trifluoromethyl)phenyl)ethoxy)butanoic acid] | 1.9 µM | > 56.2 µM | 2.45 h | 10 μL min^−1 10^−6 cells | – | – | 0% | > 100 µM | > 100 µM | 4% |
